# Columns and labels:
# [1] = system: CHCM1/CHCHD6 mRNA; experiment: Lentiviral shRNA knockdown of endogenous CHCM1/CHCHD6 (Northern and Western blot); format: cell-based; conditions: RKO human colon and MCF-7 breast cancer cells; M.O.I. 1.0 (FIG. 5A)
# Experimental: (§1) Northern blot analyses were done according to standard procedure (23, 24). Briefly, total RNA was extracted by Trizol reagent (Invitrogen, Carlsbad, Calif.) and ˜15 μg of total RNA were size-separated on 1.2% agarose gel and transferred to nylon membrane (Whatman, GE Health care, Piscataway, N.J.). Human CHCM1/CHCHD6 cDNA probe was labeled with ^32P and hybridization was performed in QuikHyb solution (Stratagene, La Jolla, Calif.) at 65° C.
# (§2) Western blotting and immunoprecipitations were done by standard procedures as previously described (25, 26). S-tag pull down experiments were performed using human cancer cells as well as bacterial lysates. Cell pellets were prepared and lysed in lysis buffer (50 mM Tris-HCl, pH 7.4, 120 mM NaCl, 0.1% NP-40, 10 mM NaF, 5 mM EDTA, 2 mM Na3VO4, 2 mM MgCl2, 10 mM KCl, 25 mM glycerophosphate, protease inhibitor cocktail, okadic acid and 1 mM PMSF) and S-tag pull down was performed by using S-protein agarose beads (Novagen, EMD Chemicals Group, Darmstadt, Germany) according to manufacturer's protocol. For S-tag pull down using bacterial lysates, wild type and deletion variants of S-tagged CHCM1/CHCHD6 were expressed in E. coli BL21 (DE3) and induced by 1 mM IPTG (isopropyl-1-thio-β-D-galactopyranoside) at 30° C. for 6 hr. Bacteria were lysed in a buffer containing 28 mM Tris, 135 mM NaCl, 1 mM dithiothreitol (DTT), 1% Triton-X 100 (w/v), protease inhibitor cocktail and 400 μg/ml […] for 30 min at room temperature, followed by 26,000×g centrifugation for 30 min (Sorvall RC5C Plus) and S-tag pull down was done according to manufacturer's protocol. GST-tagged Mitofilin was expressed in bacteria and gel-purified as previously described (27).
# Endogenous CHCM1/CHCHD6 and Mitofilin were knocked-down by lentiviral shRNA-mediated approach (28). The pLKO.1 lentiviral vectors containing the scrambled or CHCM1/CHCHD6-specific shRNAs or Mitofilin-specific shRNAs were generated by The RNA interference Consortium and purchased from Open Biosystems (Huntsville, Ala.). Lentiviruses were produced and titered according to the supplier's protocols. In all experiments, the multiplicity of infection (M.O.I.) was 1.0. Five shRNAs to target five different regions of CHCM1/CHCHD6 were used. Artificial DNA sequences coding for shRNAs are as follows. The first part of the sequence is in sense orientation then loop (underlined) followed by antisense sequence: […]
# [2] = system: RKO, MCF7 and MDA231 cell lines; experiment: MTT assay, cell growth in CHCM1/CHCHD6 knockdown cells; format: cell-based, human; conditions: knockdown vs scramble, MCF7, MDA231 (FIG. 5B)
# From the text: (§3) Endogenous CHCM1/CHCHD6 and Mitofilin were knocked-down by lentiviral shRNA-mediated approach (28). The pLKO.1 lentiviral vectors containing the scrambled or CHCM1/CHCHD6-specific shRNAs or Mitofilin-specific shRNAs were generated by The RNA interference Consortium and purchased from Open Biosystems (Huntsville, Ala.). Lentiviruses were produced and titered according to the supplier's protocols. In all experiments, the multiplicity of infection (M.O.I.) was 1.0. Five shRNAs to target five different regions of CHCM1/CHCHD6 were used. Artificial DNA sequences coding for shRNAs are as follows. The first part of the sequence is in sense orientation then loop (underlined) followed by antisense sequence:
# (§4) MTT powder (MTT, Methylthiazolyldiphenyl-tetrazolium bromide, available from Sigma-Aldrich, St. Louis, Mo., Cat. No. M2128) was dissolved in DMEM without fetal bovine serum and phenol red to a final concentration of 1 mg/ml and then added to cells and incubated for ˜1-4 hrs depending on cell confluency. Medium was then removed and equal volume of isopropanol with 0.04N HCl was added to dissolve the precipitate. Finally, absorbance was read at 570 nm wavelength subtracting background reading at 650 nm wavelength with a Bio-Rad Smart-Spec 3100 instrument.
# [3] = system: melanoma cells; experiment: MTT assay, cell growth in CHCM1 knockdown melanoma cells; format: cell-based, human; conditions: knockdown vs scramble; melanoma cells (FIG. 24)
# From the text: as §3, §4
# [4] = system: RKO cells; experiment: Transmission electron microscopy of mitochondrial cristae, RKO; format: cell-based, human; conditions: CHCM1/CHCHD6 knockdown
# From the text: as §3
# Scramble and CHCM1/CHCHD6 knockdown cells were harvested and fixed by Ito and Karnovsky's fixative (2.5% glutaraldehyde, 2% paraformaldehyde in 0.1 M cacodylate buffer, pH 7.4) at 4° C. overnight (29). The next day cells were rinsed with 0.1 M cacodylate buffer for 5 times, 5 min each. After fixing with 1% osmium tetroxide in 0.1 M cacodylate buffer for 1 hr on ice, the samples were rinsed with double-distilled H2O for 3 times, 8 min each and later fixed with 1% Tannic acid for 1 hr. After rinsing with double-distilled H2O for additional 3 times 8 min each, samples were dehydrated and embedded into Poly/Bed® 812 according to the protocol of Poly/Bed® 812 BDMA Mini-kit (Polyscience, Inc., Warrington, Pa.). Poly/Bed®-embedded cells were cut into 80-90 nm ultrathin serial sections by a diamond knife-DIATOME 45 degree (Diatome U S, Hatfield, Pa.). Sections were supported on nickel grids/200 mesh (Electron Microscopy Sciences, Hatfield, Pa.) and post-stained in 4% uranyl acetate and 4% lead citrate. Finally sections were observed under Tecnai™ Transmission Electron Microscope (BioTwin lens) with Advantage Plus CCD Camera System at an 80.0-kV acceleration voltage.
# [5] = system: MCF7 cells; experiment: Transmission electron microscopy of mitochondrial cristae, MCF7; format: cell-based, human; conditions: CHCM1/CHCHD6 knockdown
# From the text: as §3
# Scramble and CHCM1/CHCHD6 knockdown cells were harvested and fixed by Ito and Karnovsky's fixative (2.5% glutaraldehyde, 2% paraformaldehyde in 0.1 M cacodylate buffer, pH 7.4) at 4° C. overnight (29). The next day cells were rinsed with 0.1 M cacodylate buffer for 5 times, 5 min each. After fixing with 1% osmium tetroxide in 0.1 M cacodylate buffer for 1 hr on ice, the samples were rinsed with double-distilled H2O for 3 times, 8 min each and later fixed with 1% Tannic acid for 1 hr. […]
# [6] = system: RKO cells; experiment: Mitochondrial ATP synthesis assay (luciferase-based); format: cell-based, human; conditions: RKO knockdown vs scramble cells; p<0.05 (FIG. 11A)
# Experimental: Mitochondrial ATP synthesis assay was performed as reported previously (30). Briefly, CHCM1/CHCHD6 knockdown or scramble knockdown RKO cells were harvested, washed with glucose-free, serum free DMEM. Each sample with approximately 1.5×10^6 cells were re-suspended and incubated in 160 μl of buffer A (150 mM KCl, 25 mM Tris-HCl, 2 mM EDTA, 0.1% BSA, 10 mM potassium phosphate, pH 7.4, 0.1 mM MgCl2) with digitonin (40 μg/ml final concentration) for 1 min at room temperature. After a wash with buffer A, cells were centrifuged at 800×g at room temperature and pellets were re-suspended in 160 μl buffer A containing P^1, P^5-di (adenosine) pentaphosphate (0.15 mM). Subsequently, 10 μl of buffer B (0.5 M Tris-acetate, pH 7.75, 0.8 mM luciferin, 20 μg/ml luciferase), ADP (to 0.1 mM), malate and pyruvate (both to 1 mM) were added to the cell suspension. Oligomycin (1 μg/ml) was also added to one replicate of each sample prepared as above. Cells were transferred to a luminometer glass tubes and gently mixed with a vortex for 2 sec. Tubes were then placed in a luminometer (LUMAT LB 9507, Berthold Technologies, Germany) and light emission was recorded in the kinetic mode. The integration time for each reading was 1 sec. Interval between readings was 15 sec and a total recording time was 4 min. Finally, total cellular protein content of each sample was determined.
# [7] = system: RKO cells; experiment: Oxygen consumption rate measurement; format: cell-based, human; conditions: RKO knockdown vs scramble cells; p<0.05 (FIG. 11B)
# Experimental: Intact cell oxygen consumption rate was measured by an Oxygraph system with DW1 Oxygen Electrode (Hansatech Instruments Ltd., Norfolk, U. K.) as described previously (30). Briefly, RKO cells with CHCM1/CHCHD6 knockdown or scramble knockdown were harvested by trypsinization and centrifugation at 2500 rpm. Approximately 1.5×10^6 cells were re-suspended in 300 μl growth medium for each sample and injected into the polarographic chamber for the intact cell-coupled oxygen consumption rate.
# [8] = system: CHCM1/CHCHD6 mRNA; experiment: Northern blot of CHCM1/CHCHD6 mRNA after genotoxic drug treatment; format: cell-based, human
# Experimental: as §1
# [9] = system: CHCM1/CHCHD6 protein levels; experiment: Western blot of CHCM1/CHCHD6 protein levels after drug treatment; format: cell-based, human
# Experimental: as §2
# [10] = system: MDA231 and SK-Mel-103 cells; experiment: MTT assay, chemosensitivity of CHCM1/CHCHD6 knockdown cells; format: cell-based, human; conditions: Adria 3 μM for MDA231, 1 μM for SK-Mel-103, 24 hr; knockdown vs scramble (FIG. 6A)
# From the text: as §3, §4
# [11] = system: RKO cells stably expressing exogenous CHCM1/CHCHD6; experiment: MTT assay, chemosensitivity of cells stably overexpressing CHCM1/CHCHD6; format: cell-based, human; conditions: etoposide 30 μM for 48 hr; clones C3 and C4 vs vector (FIG. 6B)
# From the text: For stable transfections, expression vector pcDNA3.1 carrying HA/S-tagged CHCM1/CHCHD6 was used. The same vector without CHCM1/CHCHD6 insert was used for control transfection. RKO human colon cancer cells were transfected with these vectors using Lipofectamine 2000 (Invitrogen, Carlsbad, Calif.) and G418-resisitant colonies selected after approximately 2 weeks. Several independent colonies were picked up and expanded into mass culture and screened for the expression of exogenous CHCM1/CHCHD6. Several vector-only transfected colonies were also isolated, pooled and expanded into mass culture. CHCM1/CHCHD6 expressing clones B4, C3 and C4 were selected for further studies.
# as §4
# [12] = RKO human colon cancer cells, ADRIAMYCIN 0.5 μM (FIG. 4B)
# [13] = multiple human cancer cell lines, etoposide 30 μM, ADRIAMYCIN 1.0 μM, 24 hr (FIG. 4C)
# [14] = various human breast cancer cell lines (FIG. 23)
# [15] = RKO cells, respiratory chain inhibitors, 24 hr or antimycin A 1 μg/ml, rotenone 0.1 μg/ml for various time points (FIGS. 12A-B)
molecule,measurement,setting,value
"G8: lentiviral pLKO.1 CHCM1/CHCHD6-specific shRNA, SEQ ID NO: 7 (GCTGAGATGTATAAACTGTCTCTCGAGAGACAGTTTATACATCTCAGCT)",knockdown of endogenous CHCM1/CHCHD6 at mRNA and protein levels,[1],effectively knocked down
same,cell growth (MTT),[2],reduces cell growth
same,cell growth (MTT),[3],growth inhibition
same,"Abnormal Mitochondria devoid or nearly devoid of cristae structures, Experiment 1",[4],55.6%
same,"Abnormal Mitochondria devoid or nearly devoid of cristae structures, Experiment 2",[4],70.5% (74/105)
same,"Abnormal Mitochondria devoid or nearly devoid of cristae structures, Experiment 1",[5],65.2%
same,cellular ATP production,[6],affects cellular ATP production
same,oxygen consumption rate,[7],affects oxygen consumption rate
"G6: lentiviral pLKO.1 CHCM1/CHCHD6-specific shRNA, SEQ ID NO: 5 (GCATGCTGCTATCCAGGATAACTCGAGTTATCCTGGATAGCAGCATGCT)",knockdown of endogenous CHCM1/CHCHD6 at mRNA and protein levels,[1],effectively knocked down
"G5: lentiviral pLKO.1 CHCM1/CHCHD6-specific shRNA, SEQ ID NO: 4 (CCTGAAGAAGGGACCAATCATCTCGAGATGATTGGTCCCTTCTTCAGGT)",knockdown of endogenous CHCM1/CHCHD6 at mRNA and protein levels,[1],effectively knocked down
"COc1cccc2c1C(=O)c1c(O)c3c(c(O)c1C2=O)C[C@@](O)(C(=O)CO)C[C@@H]3O[C@H]1C[C@H](N)[C@H](O)[C@H](C)O1 [ADRIAMYCIN®, doxorubicin]",time by which CHCM1/CHCHD6 mRNA expression was reduced,[8]; [12],≤ 12 h
same,time post-treatment until which mRNA down-regulation was maintained,[8]; [12],60 h
same,CHCM1/CHCHD6 protein levels,[9]; [13],down-regulated
same,CHCM1 protein level,[9]; [14],down-regulate
same,"drug-mediated chemosensitivity in CHCM1/CHCHD6 knockdown cells (cell viability, MTT)",[10],further increased
"G4: lentiviral pLKO.1 CHCM1/CHCHD6-specific shRNA, SEQ ID NO: 3 (GAGCGTATTGAGAGGAAGAATCTCGAGATTCTTCCTCTCAATACGCTCT)",knockdown of endogenous CHCM1/CHCHD6 at mRNA and protein levels,[1],effectively knocked down
same,cell growth (MTT),[2],reduces cell growth
same,cell growth (MTT),[3],growth inhibition
same,"Abnormal Mitochondria devoid or nearly devoid of cristae structures, Experiment 1",[4],17.8%
same,"Abnormal Mitochondria devoid or nearly devoid of cristae structures, Experiment 1",[5],58.3%
same,cellular ATP production,[6],affects cellular ATP production
same,oxygen consumption rate,[7],affects oxygen consumption rate
COc1cc([C@@H]2c3cc4c(cc3[C@@H](O[C@@H]3O[C@@H]5CO[C@@H](C)O[C@H]5[C@H](O)[C@H]3O)[C@H]3COC(=O)[C@H]23)OCO4)cc(OC)c1O [etoposide],CHCM1/CHCHD6 mRNA expression,"[8]; multiple human cancer cell lines, etoposide 30 μM for 24 hr, Northern blot (FIG. 4A)",strongly down-regulated
same,CHCM1/CHCHD6 protein levels,[9]; [13],down-regulated
same,CHCM1 protein level,[9]; [14],down-regulate
same,"drug-mediated chemosensitivity in CHCM1/CHCHD6 knockdown cells (cell viability, MTT)",[10],further increased
same,"etoposide-mediated chemosensitivity in cells overexpressing CHCM1/CHCHD6 (cell viability, MTT)",[11],reduced
antimycin A,CHCM1/CHCHD6 protein levels,[9]; [15],did not appreciably affect
N.N.[Cl][Pt][Cl] [Cisplatin],CHCM1 protein level,"[9]; UACC-62 melanoma cells, 24 hrs (FIG. 22)",downregulates
C=C(C)[C@H]1Cc2c(ccc3c2O[C@@H]2COc4cc(OC)c(OC)cc4[C@@H]2C3=O)O1 [rotenone],CHCM1/CHCHD6 protein levels,[9]; [15],did not appreciably affect
"G7: lentiviral pLKO.1 CHCM1/CHCHD6-specific shRNA, SEQ ID NO: 6 (CTTTGGCCTTCAAGATGGCAACTCGAGTTGCCATCTTGAAGGCCAAAGT)",knockdown of endogenous CHCM1/CHCHD6 at mRNA and protein levels,[1],effectively knocked down

# — US9945863B2, “Coiled coil helix cristae morphology 1 (CHCM1) tumor marker and cancer therapeutic target” (The Research Foundation of State University of New York, priority 2012, dated 2018)
